Reference: patent US11446287B2, “Compounds and methods for EP300 or CBP modulation and indications therefor” (Opna Immuno-Oncology SA, priority 2019, dated 2022)

What follows are compounds tested against T1, Recombinant human CBP containing the bromodomain (CBP-BD (1043-1159)) (Homo sapiens, UniProt Q92793) (assay: CBP Alphascreen binding assay). Details: read-out: CREBBP (CBP) IC50.
T1 construct: Recombinant human CBP bromodomain (CBP-BD (1043-1159)); made in house; host or cells: E. coli BL21-CodonPlus (DE3), modified pET vector
T1 sequence (Q92793 1081-1197): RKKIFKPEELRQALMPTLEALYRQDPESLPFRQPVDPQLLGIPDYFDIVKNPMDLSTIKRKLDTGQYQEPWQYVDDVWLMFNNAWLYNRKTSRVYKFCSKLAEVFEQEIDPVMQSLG
Procedure, shortened: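 Buffer: 50 mM HEPES pH 7.5, 50 mM NaCl, 0.01% BSA, 0.01% Triton X-100, 2 mM DTT. The signal was normalised to plate controls and fitted with a four-parameter curve to give IC50.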

`Cc1cc(C(=O)O)cnc1-n1cc(CC2CCC2)c2ncc(-c3c(C)noc3C)cc21` [P-0075, 6-(3-(cyclobutylmethyl)-6-(3,5-dimethylisoxazol-4-yl)-1H-pyrrolo[3,2-b]pyridin-1-yl)-5-methylnicotinic acid] and `Cc1noc(C)c1-c1cnc2c(CC3CCC3)cn(-c3c(C(=O)O)ccc(Br)c3F)c2c1` [P-0086, 4-bromo-2-(3-(cyclobutylmethyl)-6-(3,5-dimethylisoxazol-4-yl)-1H-pyrrolo[3,2-b]pyridin-1-yl)-3-fluorobenzoic acid] fall in the same range of IC50: 0.0001 to 1 µM for the first, 0.0001 to 1 µM for the second.

First: Cc1noc(C)c1-c1cnc2c(CC3CCC3)cn(-c3ccc(C#N)cc3)c2c1 [P-0076, 4-(3-(cyclobutylmethyl)-6-(3,5-dimethylisoxazol-4-yl)-1H-pyrrolo[3,2-b]pyridin-1-yl)benzonitrile]
Second: Cc1noc(C)c1-c1cnc2c(CC3CCC3)cn(-c3ccnc(C#N)c3)c2c1 [P-0077, 4-(3-(cyclobutylmethyl)-6-(3,5-dimethylisoxazol-4-yl)-1H-pyrrolo[3,2-b]pyridin-1-yl)picolinonitrile]
The IC50 of the first is higher: 1 to 8 µM for the first, 0.0001 to 1 µM for the second. The second is the more potent here.

Compared with `Cc1noc(C)c1-c1cnc2c(c1)c(-c1cccc(C(=O)NC#N)c1)cn2Cc1ccccc1` [P-0078, 3-(1-benzyl-5-(3,5-dimethylisoxazol-4-yl)-1H-pyrrolo[2,3-b]pyridin-3-yl)-N-cyanobenzamide], `Cc1noc(C)c1-c1cnc2c(c1)c(-c1cccc(C(=O)NO)c1)cn2Cc1ccccc1` [P-0079, 3-(1-benzyl-5-(3,5-dimethylisoxazol-4-yl)-1H-pyrrolo[2,3-b]pyridin-3-yl)-N-hydroxybenzamide] is lower in IC50: 1 to 8 µM for the first, 0.0001 to 1 µM for the second.

First: Cc1noc(C)c1-c1cnc2c(c1)c(-c1ccc(C(=O)O)cc1)cn2C(C)c1ccccn1 (stereo not shown) [P-0080, 4-(5-(3,5-dimethylisoxazol-4-yl)-1-(1-(pyridin-2-yl)ethyl)-1H-pyrrolo[2,3-b]pyridin-3-yl)benzoic acid]
Second: Cc1noc(C)c1-c1cnc2c(c1)c(-c1c(F)cc(C(=O)O)cc1F)cn2C(C)c1ccccn1 (stereo not shown) [P-0094, 4-(5-(3,5-dimethylisoxazol-4-yl)-1-(1-(pyridin-2-yl)ethyl)-1H-pyrrolo[2,3-b]pyridin-3-yl)-3,5-difluorobenzoic acid]
The IC50 of the first is higher: 1 to 8 µM for the first, 0.0001 to 1 µM for the second.

First: Cc1noc(C)c1-c1cnc2c(c1)c(-c1cccc(S(N)(=O)=O)c1)cn2Cc1ccccc1 [P-0081, 3-(1-benzyl-5-(3,5-dimethylisoxazol-4-yl)-1H-pyrrolo[2,3-b]pyridin-3-yl)benzenesulfonamide]
Second: CNS(=O)(=O)c1cccc(-c2cn(Cc3ccccc3)c3ncc(-c4c(C)noc4C)cc23)c1 [P-0082, 3-(1-benzyl-5-(3,5-dimethylisoxazol-4-yl)-1H-pyrrolo[2,3-b]pyridin-3-yl)-N-methylbenzenesulfonamide]
The IC50 of the first is lower: 1 to 8 µM for the first, 8 to 1000 µM for the second. The first is the more potent here.

`Cc1noc(C)c1-c1cnc2c(c1)c(-c1cccc(S(=O)(=O)NC3CC3)c1)cn2Cc1ccccc1` [P-0083, 3-(1-benzyl-5-(3,5-dimethylisoxazol-4-yl)-1H-pyrrolo[2,3-b]pyridin-3-yl)-N-cyclopropylbenzenesulfonamide] and `Cc1noc(C)c1-c1cnc2c(c1)c(-c1cccc(C(=O)NS(C)(=O)=O)c1)cn2Cc1ccccc1` [P-0092, 3-(1-benzyl-5-(3,5-dimethylisoxazol-4-yl)-1H-pyrrolo[2,3-b]pyridin-3-yl)-N-(methylsulfonyl)benzamide] fall in the same range of IC50: 1 to 8 µM for the first, 1 to 8 µM for the second.

`Cc1noc(C)c1-c1cnc2c(C(=O)C3CC3)c(O)n(-c3ccnc(C(=O)O)c3)c2c1` [P-0084, 4-(3-(cyclopropanecarbonyl)-6-(3,5-dimethylisoxazol-4-yl)-2-hydroxy-1H-pyrrolo[3,2-b]pyridin-1-yl)picolinic acid] and `Cc1noc(C)c1-c1cnc2c(C(=O)c3ccccc3Cl)cn(-c3ccnc(C(=O)O)c3)c2c1` [P-0089, 4-(3-(2-chlorobenzoyl)-6-(3,5-dimethylisoxazol-4-yl)-1H-pyrrolo[3,2-b]pyridin-1-yl)picolinic acid] fall in the same range of IC50: 0.0001 to 1 µM for the first, 0.0001 to 1 µM for the second.

First: Cc1noc(C)c1-c1cnc2c(c1)c(-c1cccc(C(=O)O)c1)cn2C(=O)c1ccccc1 [P-0085, 3-(1-benzoyl-5-(3,5-dimethylisoxazol-4-yl)-1H-pyrrolo[2,3-b]pyridin-3-yl)benzoic acid]
Second: Cc1noc(C)c1-c1cnc2c(c1)c(C1=CCC(C(=O)O)CC1)cn2Cc1ccccc1 (stereo not shown) [P-0093, 4-(1-benzyl-5-(3,5-dimethylisoxazol-4-yl)-1H-pyrrolo[2,3-b]pyridin-3-yl)cyclohex-3-ene-1-carboxylic acid]
The IC50 of the first is higher: 1 to 8 µM for the first, 0.0001 to 1 µM for the second.

`COc1c(-n2cc(CC3CCC3)c3ncc(-c4c(C)noc4C)cc32)ccc(C(=O)O)c1F` [P-0087, 4-(3-(cyclobutylmethyl)-6-(3,5-dimethylisoxazol-4-yl)-1H-pyrrolo[3,2-b]pyridin-1-yl)-2-fluoro-3-methoxybenzoic acid] and `Cc1noc(C)c1-c1cnc2c(Cc3ccccc3Cl)cn(-c3ccnc(C(=O)O)c3)c2c1` [P-0091, 4-(3-(2-chlorobenzyl)-6-(3,5-dimethylisoxazol-4-yl)-1H-pyrrolo[3,2-b]pyridin-1-yl)picolinic acid] fall in the same range of IC50: 0.0001 to 1 µM for the first, 0.0001 to 1 µM for the second.

`Cc1noc(C)c1-c1cnc2c(C(=O)c3cccc(Cl)c3)cn(-c3ccnc(C(=O)O)c3)c2c1` [P-0088, 4-(3-(3-chlorobenzoyl)-6-(3,5-dimethylisoxazol-4-yl)-1H-pyrrolo[3,2-b]pyridin-1-yl)picolinic acid] and `Cc1noc(C)c1-c1cnc2c(Cc3cccc(Cl)c3)cn(-c3ccnc(C(=O)O)c3)c2c1` [P-0090, 4-(3-(3-chlorobenzyl)-6-(3,5-dimethylisoxazol-4-yl)-1H-pyrrolo[3,2-b]pyridin-1-yl)picolinic acid] fall in the same range of IC50: 0.0001 to 1 µM for the first, 0.0001 to 1 µM for the second.

Compared with `Cc1noc(C)c1-c1cnc2c(c1)c(-c1c(Cl)cc(C(=O)O)cc1Cl)cn2C(C)c1ccccn1` (stereo not shown) [P-0095, 3,5-dichloro-4-(5-(3,5-dimethylisoxazol-4-yl)-1-(1-(pyridin-2-yl)ethyl)-1H-pyrrolo[2,3-b]pyridin-3-yl)benzoic acid], `Cc1noc(C)c1-c1cnc2c(c1)c(-c1c(F)ccc(NS(C)(=O)=O)c1F)cn2C(C)c1ccccn1` (stereo not shown) [P-0096, N-(3-(5-(3,5-dimethylisoxazol-4-yl)-1-(1-(pyridin-2-yl)ethyl)-1H-pyrrolo[2,3-b]pyridin-3-yl)-2,4-difluorophenyl)methanesulfonamide] is higher in IC50: 0.0001 to 1 µM for the first, 1 to 8 µM for the second. The first is the more potent here.
